Usually EC50 stands for the concentration giving half of the maximal effect. Read a low EC50 as higher potency in that assay. One may read the IC50 as the concentration needed to halve the response being measured. Higher therefore signals weaker potency.

This is an account of results in PMC3893826 (Journal of medicinal chemistry, 2010).

One assay has as its target mTOR (Mus musculus, UniProt Q9JLN9). It counts as cell-based.
A further assay addresses Human mTORC1 complex (Homo sapiens, UniProt P42345). Description: In vitro mTORC1 kinase assay. It counts as biochemical.

`CC(=O)N1CCN(c2ccc(-n3c(=O)ccc4cnc5ccc(-c6cnc7ccccc7c6)cc5c43)cc2C(F)(F)F)CC1` [Compound 7, 1-(4-(4-acetylpiperazin-1-yl)-3-(trifluoromethyl)phenyl)-9-(quinolin-3-yl)benzo[h][1,6]naphthyridin-2(1H)-one] yielded an EC50 on mTOR of 3 nM. The “improved mTOR cellular potency compared to screening hit compound 1” value on mTOR (relative to compound 1) came to 1000 fold. Further, the “improvement in cellular potency, 7 versus 8” value on mTOR (relative to compound 8) is on record as 13 fold.
In the case of `COCCC(=O)N1CCN(c2ccc(Nc3ccnc4ccc(-c5cnc6ccccc6c5)cc34)cc2C(F)(F)F)CC1` [Compound 16], the values for the IC50 at mTOR and at Human mTORC1 complex were 40 nM and 82.6 nM, respectively.
